Data reported in article PMC3501490 (PLoS ONE, 2012).
One block for each substance: values may come before it. Where no end group is shown, it is not given here. [ ]: non-standard residue; d: D form. pY = N[C@@H](Cc1ccc(OP(=O)(O)O)cc1)C(=O)O

Columns and labels:
[1] = tested on: washed human platelets (CRP); experiment: Light transmission aggregometry of TAT-peptide-loaded platelets, CRP; type: cell-based; details: for effect on EC50 / sensitivity to CRP: washed human platelets, TAT peptide loading
Procedure: (§1) Whole blood was taken from healthy volunteers and collected into 50 ml syringes containing 5 ml acid citrate-dextrose (ACD) in accordance with procedures approved by the Local Research Ethics Committee (Ref: 07/Q1603/17). Platelet-rich plasma (PRP) was isolated by centrifugation at 200 g for 10 minutes at room temperature. PRP was pooled and 10 µg PGI2 was added before centrifugation at 1000 g for 10 minutes at room temperature. Platelets were resuspended in 1 ml Tyrodes buffer (134 mM NaCl, 0.34 mM Na2HPO4, 2.9 mM KCl, 12 mM NaHCO3, 20 mM HEPES, 5 mM glucose, 1 mM MgCl2, pH 7.3) pre-warmed to 30°C and 150 µl ACD. The volume was adjusted to 25 ml with Tyrodes buffer, followed by 3 ml ACD and 1.25 µg PGI2. Cells were centrifuged at 1000 g for 10 minutes at room temperature and the resultant cell pellet was resuspended in 1 ml pre-warmed Tyrodes buffer before adjusting the volume to a final cell density of 4×10^8 cells/ml (aggregations) or 2×10^9 cells/ml (peptide pull downs). Where appropriate, 1 mM EGTA, 10 µM indomethacin and 2 U/ml apyrase were added to inhibit aggregations (referred to as non-aggregating conditions).
(§2) Fluorescein-labelled, TAT-G6B-b peptides were synthesised by Peptide Protein Research Ltd (Hampshire, U.K.). Peptides were either unphosphorylated, or phosphorylated at both ITIMs as follows: Dual phosphorylated peptide – FLUO- […]*[…]*AVVV or unphosphorylated control peptide (lacking tyrosine phosphorylation) - FLUO- […]. TAT sequences are underlined and phosphorylated tyrosines marked with an asterisk. Peptides were loaded into washed platelets by incubation with 10 µM peptide for 15 minutes at 30°C, after which they were assessed by light transmission aggregometry. Peptide loading conditions were optimised and verified by flow cytometry.
(§3) Washed human platelets were loaded with TAT-G6B-b peptides (either dual phosphorylated or unphosphorylated) and changes in CRP efficacy determined by light transmission aggregometry. […] Thrombin-mediated activation was unaffected (data not shown). […] Peptide loading was verified by flow cytometry (Figure 9C and 9D.

[2] = tested on: washed human platelets (collagen); experiment: Light transmission aggregometry of TAT-peptide-loaded platelets, collagen; type: cell-based; details: for effect on EC50 / sensitivity to collagen: washed human platelets, TAT peptide loading
Procedure: as §1, §2, §3

[3] = tested on: washed human platelets (thrombin); experiment: Activation of TAT-peptide-loaded platelets, thrombin; type: cell-based; details: platelets loaded with 10 µM peptide, 15 min, 30°C; data not shown
Procedure: Whole blood was taken from healthy volunteers and collected into 50 ml syringes containing 5 ml acid citrate-dextrose (ACD) in accordance with procedures approved by the Local Research Ethics Committee (Ref: 07/Q1603/17). Platelet-rich plasma (PRP) was isolated by centrifugation at 200 g for 10 minutes at room temperature. PRP was pooled and 10 µg PGI2 was added before centrifugation at 1000 g for 10 minutes at room temperature. Platelets were resuspended in 1 ml Tyrodes buffer (134 mM NaCl, 0.34 mM Na2HPO4, 2.9 mM KCl, 12 mM NaHCO3, 20 mM HEPES, 5 mM glucose, 1 mM MgCl2, pH 7.3) pre-warmed to 30°C and 150 µl ACD. The volume was adjusted to 25 ml with Tyrodes buffer, followed by 3 ml ACD and 1.25 µg PGI2. […]
Fluorescein-labelled, TAT-G6B-b peptides were synthesised by Peptide Protein Research Ltd (Hampshire, U.K.). […] Peptides were loaded into washed platelets by incubation with 10 µM peptide for 15 minutes at 30°C, after which they were assessed by light transmission aggregometry. […]
Washed human platelets were loaded with TAT-G6B-b peptides (either dual phosphorylated or unphosphorylated) and changes in CRP efficacy determined by light transmission aggregometry. […]

[4] = biological target: T1, N-terminal SH2 domain of SHP-2 (Homo sapiens, UniProt Q06124); experiment: SPR (BIAcore 3000), single N-terminal SH2 domain of SHP-2; type: binding; details: equilibrium binding, single site fitting, HBS pH 7.4, 37°C, 10 µl/min, read-out: KD
T1 construct: SHP-2 (N)SH2 (His-tag) (OMC #3912); His-tag; host or cells: E. coli BL21(DE3)
T1 sequence (Q06124 6-102 limits assumed): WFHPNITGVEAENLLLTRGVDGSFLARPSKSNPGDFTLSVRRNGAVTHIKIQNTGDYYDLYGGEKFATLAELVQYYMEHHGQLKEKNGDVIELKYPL
Procedure: (§4) These proteins were expressed in BL21(DE3) cells (Invitrogen) induced with 1 mM IPTG for 4 hours at 37°C. Bacteria were pelleted and washed in PBS/0.5 M NaCl prior to sonication in PBS/0.5 M NaCl, in the presence of protease inhibitor cocktail (Complete, EDTA-free, Roche). Soluble and insoluble fractions were separated by centrifugation at 30,000 g for 60 minutes. Soluble fractions containing tagged proteins were incubated for 1 hour at 4°C with end-over-end mixing in the presence of washed Ni-Sepharose (GE Lifesceinces, Little Chalfont, U.K.) supplemented with 40 mM imidazole or Amylose resin (NEB, Herts, U.K). Proteins were eluted according to the manufacturer's instructions and purified by size exclusion chromatography on an AKTApurifier (GE Lifesciences, Little Chalfont, U.K).
Experiments were conducted on a BIAcore™ 3000 in HBS buffer (0.01 M HEPES, pH 7.4, containing 0.15 M NaCl, 3 mM EDTA, and 0.005% v/v P-20, GE Life Sciences, Amersham, UK). Streptavidin was coupled to a research grade CM5 chip (GE Life Sciences, Amersham, UK) as previously described, [13]. Protein-peptide interactions were carried out a rate of 10 µl/min at a constant temperature of 37°C to more accurately reflect physiological conditions. Biotinylated peptides were bound to the streptavidin-coated CM5 chips at 37°C to between 25–50 RU [14]. Purified monomeric SH2 domains were passed over the immobilised peptides at a range of concentrations. Anti-phosphotyrosine monoclonal antibody (Sigma, Poole, U.K.) was passed over the chip to saturation at the end of each experiment to verify peptide coverage on the chip. Binding affinities for the single ITIM/ITSM peptides were determined by plotting equilibrium binding measurements (RU) against SH2 domain protein concentration (Origin 8, OriginLab, MA, USA). KD was defined as the concentration of SH2 protein that gave half maximal binding to the peptide. […] KD was determined as Koff/Kon, which were determined using both GraphPad Prism 5.0 (GraphPad, La Jolla, CA, USA) and BIAevaluation Software (GE Life Sciences, Amersham,UK).

[5] = biological target: T2, SHP-2 tandem (N+C) SH2 domains (Homo sapiens, UniProt Q06124); experiment: SPR (BIAcore 3000), SHP-2 tandem (N+C) SH2 domains; type: binding; details: kinetic (koff/kon), single site model, HBS pH 7.4, 37°C, 50 µl/min, mean, n = 5, SEM
T2 construct: SHP-2 (N+C)SH2 domains (His-tag) (3911); His-tag; host or cells: E. coli BL21(DE3)
T2 sequence (Q06124 1-216 limits assumed): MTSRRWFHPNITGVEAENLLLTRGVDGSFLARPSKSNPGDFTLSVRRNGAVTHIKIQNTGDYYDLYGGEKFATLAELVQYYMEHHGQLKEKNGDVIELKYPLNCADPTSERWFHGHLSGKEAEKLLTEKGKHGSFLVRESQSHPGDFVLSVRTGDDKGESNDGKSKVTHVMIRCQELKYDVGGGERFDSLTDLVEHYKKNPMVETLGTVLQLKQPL
T2 sequence (O95866 182-241 partner limits assumed): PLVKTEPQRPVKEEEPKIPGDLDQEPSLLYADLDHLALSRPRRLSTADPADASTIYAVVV
Procedure: Experiments were conducted on a BIAcore™ 3000 in HBS buffer (0.01 M HEPES, pH 7.4, containing 0.15 M NaCl, 3 mM EDTA, and 0.005% v/v P-20, GE Life Sciences, Amersham, UK). Streptavidin was coupled to a research grade CM5 chip (GE Life Sciences, Amersham, UK) as previously described [12], [13]. Protein-peptide interactions were carried out a rate of 10 µl/min at a constant temperature of 37°C to more accurately reflect physiological conditions. Biotinylated peptides were bound to the streptavidin-coated CM5 chips at 37°C to between 25–50 RU [14]. Purified monomeric SH2 domains were passed over the immobilised peptides at a range of concentrations. Anti-phosphotyrosine monoclonal antibody (Sigma, Poole, U.K.) was passed over the chip to saturation at the end of each experiment to verify peptide coverage on the chip. Binding affinities for the single ITIM/ITSM peptides were determined by plotting equilibrium binding measurements (RU) against SH2 domain protein concentration (Origin 8, OriginLab, MA, USA). […] For the 60-mer peptides, SH2 domains were passed over the chip surface at 50 µl/min. KD was determined as Koff/Kon, which were determined using both GraphPad Prism 5.0 (GraphPad, La Jolla, CA, USA) and BIAevaluation Software (GE Life Sciences, Amersham,UK).
We kinetically determined the binding affinity (KD = koff/kon) by SPR at physiological temperatures.

[6] = biological target: T3, SHP-1 tandem (N+C) SH2 domains (Homo sapiens, UniProt P29350); experiment: SPR (BIAcore 3000), SHP-1 tandem (N+C) SH2 domains; type: binding
T3 construct: host or cells: E. coli BL21(DE3)
T3 sequence (P29350 1-213 limits assumed): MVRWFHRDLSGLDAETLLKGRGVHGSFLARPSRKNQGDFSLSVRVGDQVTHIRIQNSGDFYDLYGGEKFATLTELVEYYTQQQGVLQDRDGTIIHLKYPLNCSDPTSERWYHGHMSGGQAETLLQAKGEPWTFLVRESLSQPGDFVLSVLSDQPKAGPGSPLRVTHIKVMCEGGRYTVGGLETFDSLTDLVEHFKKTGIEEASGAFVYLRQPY
T3 sequence (O95866 182-241 partner limits assumed): T2 sequence (O95866 182-241 partner limits assumed)
Procedure: as §4
Experiments were conducted on a BIAcore™ 3000 in HBS buffer (0.01 M HEPES, pH 7.4, containing 0.15 M NaCl, 3 mM EDTA, and 0.005% v/v P-20, GE Life Sciences, Amersham, UK). […] Binding affinities for the single ITIM/ITSM peptides were determined by plotting equilibrium binding measurements (RU) against SH2 domain protein concentration (Origin 8, OriginLab, MA, USA). […] KD was determined as Koff/Kon, which were determined using both GraphPad Prism 5.0 (GraphPad, La Jolla, CA, USA) and BIAevaluation Software (GE Life Sciences, Amersham,UK). […]

[7] = biological target: T4, Syk (Homo sapiens, UniProt P43405); experiment: SPR (BIAcore 3000), Syk SH2 domains; type: binding; details: HBS pH 7.4, 37°C, n = 3
T4 construct: made in house
Procedure: Experiments were conducted on a BIAcore™ 3000 in HBS buffer (0.01 M HEPES, pH 7.4, containing 0.15 M NaCl, 3 mM EDTA, and 0.005% v/v P-20, GE Life Sciences, Amersham, UK). Streptavidin was coupled to a research grade CM5 chip (GE Life Sciences, Amersham, UK) as previously described, [13]. Protein-peptide interactions were carried out a rate of 10 µl/min at a constant temperature of 37°C to more accurately reflect physiological conditions. Biotinylated peptides were bound to the streptavidin-coated CM5 chips at 37°C to between 25–50 RU [14]. Purified monomeric SH2 domains were passed over the immobilised peptides at a range of concentrations. Anti-phosphotyrosine monoclonal antibody (Sigma, Poole, U.K.) was passed over the chip to saturation at the end of each experiment to verify peptide coverage on the chip. Binding affinities for the single ITIM/ITSM peptides were determined by plotting equilibrium binding measurements (RU) against SH2 domain protein concentration (Origin 8, OriginLab, MA, USA). KD was defined as the concentration of SH2 protein that gave half maximal binding to the peptide. For the 60-mer peptides, SH2 domains were passed over the chip surface at 50 µl/min. KD was determined as Koff/Kon, which were determined using both GraphPad Prism 5.0 (GraphPad, La Jolla, CA, USA) and BIAevaluation Software (GE Life Sciences, Amersham,UK). […]

[8] = tested on: SHP-2; experiment: Peptide pull down from platelet lysate, SHP-2; type: binding; details: human platelet lysate, Western blotting; 4°C, 30 min; n = 3
Procedure: (§5) Forty micrograms of peptide were coupled to 50 µl of Streptactin beads (50% slurry) for 30 minutes at 4°C with end-over-end mixing, washed twice with 1 ml PBS and resuspended in 100 µl of modified Tyrodes buffer. Platelets were resuspended in modified Tyrodes buffer at a concentration of 2×10^9 cells/ml under non-aggregating conditions (10 µM indomethacin, 1 mM EGTA and 2 U/ml apyrase). Cells were activated with 1 ug/ml CRP for 90 seconds under stirring, but non-aggregating conditions, before reactions were terminated by the addition of 500 µl 2× NP40 lysis buffer (150 mM NaCl, 10 mM Tris pH 7.5, 1 mM EGTA, 1 mM EDTA, 1% NP-40) with inhibitors (Roche Complete mini protease inhibitor cocktail, 5 mM NaF, 5 mM NaVO4, 250 nM beta-glycerophosphate) and placed on ice. Lysates were pooled and pre-cleared as a batch with 200 µl streptactin beads (50% slurry). Non-specific interactions were then removed by centrifugation at 4,750 g for 15 minutes at 4°C. Pre-cleared lysates were incubated with 50 µl peptide/bead conjugate (50% slurry) at 4°C for 30 minutes with end-over-end mixing. […]
(§6) Although likely that these interactions are direct, this has not yet been conclusively shown. […] Peptide associated material was separated by SDS-PAGE and assessed for the presence of SHP-1 and SHP-2 by Western blotting, both of which were clearly identified (Figure 1C).

[9] = tested on: SHP-1; experiment: Peptide pull down from platelet lysate, SHP-1; type: binding; details: human platelet lysate, Western blotting; 4°C, 30 min; n = 3
Procedure: as §5, §6

[10] = 10 µM peptide, 15 min, 30°C, vs vehicle control
[11] = listed as G6B-b dual phosphorylated peptide

Substance: FLUO- GRKKRRQRRRPQDLDQEPSLLY*ADLDHLALSRPRRLSTADPADASTIY*AVVV [dual phosphorylated G6B-b TAT-peptide, Fluorescein-labelled TAT-G6B-b peptide phosphorylated at both ITIMs]
- fold increase in EC50 of CRP [1, 10]: ~1.65 fold
- effect on EC50 / sensitivity to CRP [1]: can reduce the EC50 for both CRP and collagen
- effect on EC50 / sensitivity to CRP [1, 11]: reduces platelet sensitivity to GPVI agonists
- fold increase in EC50 of collagen [2, 10]: 2.5 fold
- effect on EC50 / sensitivity to collagen [2]: can reduce the EC50 for both CRP and collagen
- effect on EC50 / sensitivity to collagen [2, 11]: reduces platelet sensitivity to GPVI agonists
- thrombin-mediated activation [3]: unaffected

- Kd [4]: 130 nM
- Kd [5]: 0.48 ± 0.09 nM
- Koff ([6]; 37°C, dual peptide, read-out: Koff (dissociation rate)): 0.01 s⁻¹
- Kd ([6]; kinetic (koff/kon), single site model, HBS pH 7.4, 37°C, 50 µl/min, mean, n = 5, SEM, read-out: binding affinity (KD)): 35.3 ± 4.3 nM
- Kd [7]: ~25000 nM
Substance: PLVKTEPQRPVKEEEPKIPGDLDQEPSLL[pY]ADLDHLALSRPRRLSTADPADASTI[pY]AVVV [dual phosphopeptide]

Substance: unphosphorylated control peptides: biotinylated 60-mer G6B-b peptide (182 to 241), unphosphorylated (PLVKTEPQRPVKEEEPKIPGDLDQEPSLLYADLDHLALSRPRRLSTADPADASTIYAVVV; also: biotinylated (end not given here))
- association [8]: No SHP-1 or SHP-2 bound
- association [9]: No SHP-1 or SHP-2 bound
